From US8933270B2, “Use of docasatrienes, resolvins, and their stable analogs in the treatment of airway diseases and asthma” (The Brigham and Women's Hospital, Inc., priority 2002, dated 2015) come the findings set out here.

One series relates to PMN infiltration. The experiment in a line: Zymosan A-induced peritonitis. In kind it is in vivo, FVB mice. The settings on record: i.v. bolus before zymosan A, lavage at 2 h. The procedure: FIG. 5 depicts Bioimpact properties of omega-3-derived Resolvins. A) Human glioma cells: Inhibition of TNF-stimulated IL-1β transcripts DBTRG-05MG cells 10^6/ml were stimulated with 50 ng/ml of human recombinant TNFα for 16 hours to induce expression of IL-1β transcripts. Concentration dependence with COX-2 products: 17-HDHA (n), 13-HDHA (l)and di-/tri-HDHA (n). […] (insets) Results are representative of RT-PCR gels of MG cells exposed to 100 nM of 13-HDHA or 17-HDHA and graphed after normalization of the IL-1β transcripts using GAPDH. B) Influence of eicosanoids and docosanoids on fMLP-induced neutrophil migration across micovascular endothelial monolayers Neutrophils (1×10^6 cells/monolayer) were exposed to vehicle containing buffer, or indicated concentrations of aspirin-triggered LXA4 analog (closed diamonds) 5S,12,18R-triHEPE (closed squares), 17R-HDHA (closed circles) or 13-HDHA (closed triangles) for 15 minutes at 37° C. Neutrophils were then layered on HMVEC monolayers and stimulated to transmigrate by a 10^−8 M fMLP gradient for 1 hr at 37° C. Transmigration was assessed by quantitation of the neutrophil marker myeloperoxidase. Results are presented as mean±SEM number of PMN (n=8-12 monolayers per condition). C) Reduction of PMN in murine peritonitis and skin pouch peritonitis: Compounds (100 ng in 120 μL sterile saline) were injected by intravenous bolus injection into the mouse tail vein and followed by 1 ml zymosan A (1 mg/ml) into the peritoneum. Peritoneal lavages were collected (2 h) and cell types were enumerated.
Human PMN transendothelial migration was quantitated by monitoring myeloperoxidase (MPO) an azurophilic granule marker as in (34, 37). Inflammatory exudates were initiated with intrapouch injection of recombinant mouse TNFα (100 ng/pouch; R&D Systems) into dorsal air pouches (10) of 6-8 wk male FVB mice fed laboratory rodent diet 5001 (Lab Diet, Purina Mills) containing less than 0.25% arachidonic acid, 1.49% EPA and 1.86% DHA followed by ASA (500 μg) at 3.5 h and 300 μg DHA/pouch at 4 h post-TNFα injection. At 6 h (within the resolution phase), pouches were lavaged (3 ml saline) and exudate cells were enumerated Inhibition of TNFα stimulated (100 ng/pouch) PMN infiltration with i.v. tail injection of either 17R-HDHA (as prepared with COX-2 vide infra), 5S,12,18R-HEPE, or a 15-epi-LXA4 analog were determined with pouch lavages taken at 4 h. Peritonitis was performed using 6 to 8-week-old FVB male mice (Charles River Laboratories) fed laboratory Rodent Diet 5001 (Purina Mills) that were anesthetized with isoflurane, and compounds to be tested (125 μl) were administered intravenously. Zymosan A in 1 ml (1 mg/ml) was injected ˜1-1.5 min later in the peritoneum. Each test compound (100 ng/incubation, i.e. 17R-HDHA in ethanol) or vehicle alone was suspended in ˜5 μl and mixed in sterile saline 120 μl. Two hours after the intraperitoneal injections, and in accordance with the Harvard Medical Area Standing Committee on Animals protocol #02570, mice were euthanized and peritoneal lavages rapidly collected for enumeration.
Peritonitis was induced in 6 to 8 week old male FVB mice by peritoneal injection of 1 mg Zymosan A. Compounds 4,17S and 10,17S-diHDHA were injected by intravenous bolus injection, 1.5 minutes before Zymosan A treatment. Two hours after induction of peritonitis, rapid peritoneal lavages were collected and cell type enumeration was performed.

The test system of series [1] is airway hyper-responsiveness. The experiment in a line: OVA model: airway responsiveness to inhaled methacholine (lung resistance). The conditions noted are these: PD1 0-200 ng; methacholine 0, 20, 50, 75 mg. Type of series: in vivo, FvB mice. The procedure: Because increased airway reactivity is a diagnostic hallmark of asthma, it was also determined if PD 1 regulated airway hyper-responsiveness to inhaled methacholine. After allergen sensitization and aerosol challenge in the presence of PD 1 (0-200 ng), animals were ventilated and exposed (10 sec) to increasing concentrations of inhaled methacholine (0, 20, 50 and 75 mg).
Five to seven week old male FvB mice (Charles River Laboratories, Wilmington, Mass.) were housed in isolation cages under viral antibody-free conditions. Mice were fed a standard diet (Laboratory Rodent Diet 5001, PMI Nutrition International, Richmond, Ind.) that contained no less than 4.5% total fat with 0.26% omega-3 fatty acids and <0.01% C20:4. […] On day 18, 24 h after the last aerosol challenge, airway responsiveness to aerosolized methacholine (0, 20, 50 and 75 mg, 10 sec) was measured, bilateral bronchoalveolar lavage (BAL) (2 aliquots of 1 ml PBS plus 0.6 mM EDTA) was performed or tissues were harvested for histological analysis. Lung resistance was measured using a Flexivent ventilator (SciReq, Montreal, Quebec). Resistance was measured as a function of time for each animal, and peak and average values for each dose of methacholine were recorded. […]

Series [2] has as its system airway leukocyte accumulation. The experiment in a line: OVA sensitization and aerosol challenge: lung histology and BAL leukocytes. In kind it is in vivo. The procedure: To determine if PD1 and Resolvin E1 had properties of a counter-regulatory mediator during airway inflammation, physiologically relevant quantities (2, 20 or 200 ng) were administered by intravenous injection to allergen sensitized animals just prior (30 min) to aerosol challenge on 4 consecutive days. […] In conjunction with decreased airway inflammation, levels of the counter-regulatory eicosanoid LXA4 were also […] in the presence of PD1 (data not shown).
(§1) Five to seven week old male FvB mice (Charles River Laboratories, Wilmington, Mass.) were housed in isolation cages under viral antibody-free conditions. Mice were fed a standard diet (Laboratory Rodent Diet 5001, PMI Nutrition International, Richmond, Ind.) that contained no less than 4.5% total fat with 0.26% omega-3 fatty acids and <0.01% C20:4. After Harvard Medical Area IRB approval (Protocol #02570), mice were sensitized with intraperitoneal injections of ovalbumin (OVA) (Grade III; Sigma Chemical Co., St. Louis, Mo.) (10 μg) plus 1 mg aluminum hydroxide (ALUM) (J. T. Baker Chemical Co.; Phillipsburg, N.J.) as adjuvant in 0.2 ml PBS on days 0 and 7. On days 14, 15, 16 and 17, the mice received PD1 (2, 20 or 200 ng), Resolvin E1 (200 ng) (products of biogenic synthesis (Hong, Gronert et al. 2003)), or PBS with 1.6 mM CaCl2 and 1.6 mM MgCl2 (0.1 ml) by intravenous injection 30 min prior to an aerosol challenge containing either PBS or 6% OVA for 25 min/day. On day 18, 24 h after the last aerosol challenge, airway responsiveness to aerosolized methacholine (0, 20, 50 and 75 mg, 10 sec) was measured, bilateral bronchoalveolar lavage (BAL) (2 aliquots of 1 ml PBS plus 0.6 mM EDTA) was performed or tissues were harvested for histological analysis. Lung resistance was measured using a Flexivent ventilator (SciReq, Montreal, Quebec). Resistance was measured as a function of time for each animal, and peak and average values for each dose of methacholine were recorded. No BAL or histological analysis was performed on those animals undergoing airway hyper-responsiveness or lipid extraction studies.
(§2) Tissue morphometry was performed by a member (K. Haley) of the Lung Histopathology Core Laboratory at Brigham and Women's Hospital who was blinded to the experimental conditions prior to histological analyses. Three fields per slide were examined at 200× magnification for vessels, large airways and alveoli with EOS counted at 400× magnification in randomly assigned fields. Vessels were identified by perivascular smooth muscle, and large airways were identified by at least ½ their diameter either cuboidal or columnar epithelia. Measurement of inflammatory mediators was determined in cell-free BAL fluid (2000 g, 10 min) by sensitive and specific ELISAs, in tandem, for interleukin-5 (IL-5), IL-12, IL-13, PGD2 (R&D Systems, Minneapolis, Minn.), cysteinyl LTs, (Cayman Chemical Co, Ann Arbor, Mich.), and LXA4 (Neogen, Lexington, Ky.). Cells in BALF were resuspended in PBS, enumerated by hemocytometer, and concentrated onto microscope slides by cytocentrifuge (STATspin) (265 g). Cells were stained with a Wright-Giemsa stain (Sigma Chemical Co.) to determine leukocyte differentials (after counting ≧200 cells).

Series [3] deals with BALF cytokines and lipid mediators. As to the kind of experiment: OVA model: inflammatory mediators in BAL fluid by ELISA. In kind it is in vivo, FvB mice.
Text: as §1, §2

The mark [4] stands for this setting: i.v. 30 min before aerosol challenge on 4 days.

On to `CC/C=C\C[C@H](O)\C=C/C=C/C=C/C(O)C/C=C\C/C=C\CCC(=O)O` (stereo in doubt) [PD1, 10,17S-dihydroxy-4,7,15,19-cis-11,13-trans-docosahexaenoic acid], for which, in the series on PMN infiltration (listed as 10,17S-docosatrienes), the “inhibition of PMN/leukocyte infiltration” value is reported as “potent inhibition”. Also, the “inhibition of PMN/leukocyte infiltration” value in the series on PMN infiltration (listed as 10,17 di-HDHA) is “inhibited”. Further, in series [1], the “peak and average lung resistance in response to methacholine” value was “decreased both peak and average lung resistance”. Besides, in series [2] (10,17-DT 20 ng and 200 ng, Resolvin E1 200 ng), the “eosinophil and lymphs (FIG. 25)” value is recorded as “reduced”. Further, the “total leukocytes, EOS and Lymphs in BAL fluid” value in series [2] (PD1 2, 20 or 200 ng, Resolvin E1 200 ng i.v.) was “decreased”. Further, the “behavioral or physical signs of toxicity” value in series [2] (PD1 treatment, nanogram quantities i.v.) is listed as “No behavioral or physical signs of toxicity”. For the same compound, the “lowest dose reducing TH2 lymphocyte activation / eosinophil recruitment” value in series [2] (i.v.) is given as 2 ng. In series [2] (setting [4]), the “EOS tissue infiltration around vessels, large and peripheral airways (morphometry)” value is listed as “significant decreases”; the “edema and epithelial hyperplasia” value was “markedly decreased”. For the same compound, the “eosinophils and lymphocytes in peribronchiolar regions and airspaces” value in series [2] (i.v. 30 min before aerosol challenge on 4 days, vs vehicle) is listed as “substantially less”. In addition, in series [3] (BAL fluid), the IL-12 levels entry is reported as “no significant effect”, the “allergen-induced increase in CysLTs” value is recorded as “blocked allergen-induced increases”, the “allergen-induced increase in IL-13” value was “blocked allergen-induced increases” and the “allergen-induced increase in PGD2” value is “blocked allergen-induced increases”. For the same compound, in series [3] (IL-13 and CysLT generation), the “potency of inhibitory concentrations relative to the LX analog” value is 1 to 2 log orders. In addition, the “levels of LXA4” value in series [3] (data not shown) was “diminished”.
